Results reported in ChEMBL document CHEMBL3045835, “Comparative study of conventional and microwave-assisted synthesis of some Schiff bases and their potential as antimicrobial agents” (2012).
Converted amounts (≈) assume the structure as drawn.

Assays:
Assay type in all cases: functional
Pseudomonas aeruginosa [1] = experiment: Antibacterial activity against Pseudomonas aeruginosa MTCC 424 after 24 hr by broth dilution method; conditions: MTCC 424, 24 h
Micrococcus luteus = experiment: Antibacterial activity against Micrococcus luteus MTCC 1538 after 24 hr by broth dilution method; conditions: MTCC 1538, 24 h
Bacillus pumilus = experiment: Antibacterial activity against Bacillus pumilus MTCC 1456 after 24 hr by broth dilution method; conditions: MTCC 1456, 24 h
Staphylococcus aureus = experiment: Antibacterial activity against Staphylococcus aureus MTCC 1430 after 24 hr by broth dilution method; conditions: MTCC 1430, 24 h
Bacillus subtilis = experiment: Antibacterial activity against Bacillus subtilis MTCC 441 after 24 hr by broth dilution method; conditions: MTCC 441, 24 h
Pseudomonas fluorescens [2] = experiment: Antibacterial activity against Pseudomonas fluorescens MTCC 2421 at 1000 ug/ml after 18 hr by cup-plate method; conditions: MTCC 2421, 18 h, read-out: DIZ
Pseudomonas fluorescens [3] = experiment: Antibacterial activity against Pseudomonas fluorescens MTCC 2421 at 1500 ug/ml after 18 hr by cup-plate method; conditions: MTCC 2421, 18 h, read-out: DIZ
Pseudomonas fluorescens [4] = experiment: Antibacterial activity against Pseudomonas fluorescens MTCC 2421 at 500 ug/ml after 18 hr by cup-plate method; conditions: MTCC 2421, 18 h, read-out: DIZ
Pseudomonas fluorescens [5] = experiment: Antibacterial activity against Pseudomonas fluorescens MTCC 2421 at 200 ug/ml after 18 hr by cup-plate method; conditions: MTCC 2421, 18 h, read-out: DIZ
Penicillium chrysogenum [6] = experiment: Antifungal activity against Penicillium chrysogenum MTCC 161 at 1500 ug/ml after 18 hr by cup-plate method; conditions: MTCC 161, 18 h, read-out: DIZ
Penicillium chrysogenum [7] = experiment: Antifungal activity against Penicillium chrysogenum MTCC 161 at 1000 ug/ml after 18 hr by cup-plate method; conditions: MTCC 161, 18 h, read-out: DIZ
Penicillium chrysogenum [8] = experiment: Antifungal activity against Penicillium chrysogenum MTCC 161 at 500 ug/ml after 18 hr by cup-plate method; conditions: MTCC 161, 18 h, read-out: DIZ
Penicillium chrysogenum [9] = experiment: Antifungal activity against Penicillium chrysogenum MTCC 161 at 200 ug/ml after 18 hr by cup-plate method; conditions: MTCC 161, 18 h, read-out: DIZ
Penicillium chrysogenum [10] = experiment: Antifungal activity against Penicillium chrysogenum MTCC 161 at 100 ug/ml after 18 hr by cup-plate method; conditions: MTCC 161, 18 h, read-out: DIZ
Aspergillus niger [11] = experiment: Antifungal activity against Aspergillus niger MTCC 2546 at 1000 ug/ml after 18 hr by cup-plate method; conditions: MTCC 2546, 18 h, read-out: DIZ
Aspergillus niger [12] = experiment: Antifungal activity against Aspergillus niger MTCC 2546 at 1500 ug/ml after 18 hr by cup-plate method; conditions: MTCC 2546, 18 h, read-out: DIZ
Aspergillus niger [13] = experiment: Antifungal activity against Aspergillus niger MTCC 2546 at 500 ug/ml after 18 hr by cup-plate method; conditions: MTCC 2546, 18 h, read-out: DIZ
Aspergillus niger [14] = experiment: Antifungal activity against Aspergillus niger MTCC 2546 at 100 ug/ml after 18 hr by cup-plate method; conditions: MTCC 2546, 18 h, read-out: DIZ
Aspergillus niger [15] = experiment: Antifungal activity against Aspergillus niger MTCC 2546 at 200 ug/ml after 18 hr by cup-plate method; conditions: MTCC 2546, 18 h, read-out: DIZ
Escherichia coli [16] = experiment: Antibacterial activity against Escherichia coli MTCC 1573 at 1500 ug/ml after 18 hr by cup-plate method; conditions: MTCC 1573, 18 h, read-out: DIZ
Escherichia coli [17] = experiment: Antibacterial activity against Escherichia coli MTCC 1573 at 500 ug/ml after 18 hr by cup-plate method; conditions: MTCC 1573, 18 h, read-out: DIZ
Escherichia coli [18] = experiment: Antibacterial activity against Escherichia coli MTCC 1573 at 1000 ug/ml after 18 hr by cup-plate method; conditions: MTCC 1573, 18 h, read-out: DIZ
Escherichia coli [19] = experiment: Antibacterial activity against Escherichia coli MTCC 1573 at 200 ug/ml after 18 hr by cup-plate method; conditions: MTCC 1573, 18 h, read-out: DIZ
Escherichia coli [20] = experiment: Antibacterial activity against Escherichia coli MTCC 1573 at 100 ug/ml after 18 hr by cup-plate method; conditions: MTCC 1573, 18 h, read-out: DIZ
Pseudomonas fluorescens [21] = experiment: Antibacterial activity against Pseudomonas fluorescens MTCC 2421 at 100 ug/ml after 18 hr by cup-plate method; conditions: MTCC 2421, 18 h, read-out: DIZ
Pseudomonas aeruginosa [22] = experiment: Antibacterial activity against Pseudomonas aeruginosa MTCC 424 at 1500 ug/ml after 18 hr by cup-plate method; conditions: MTCC 424, 18 h, read-out: DIZ
Pseudomonas aeruginosa [23] = experiment: Antibacterial activity against Pseudomonas aeruginosa MTCC 424 at 1000 ug/ml after 18 hr by cup-plate method; conditions: MTCC 424, 18 h, read-out: DIZ

Structure (SMILES): O=c1c(/C=N/c2nc[nH]n2)coc2ccccc12
- MIC (Pseudomonas aeruginosa [1]): 300 µg/mL (≈ 1250 µM)
- MIC (Micrococcus luteus): 300 µg/mL (≈ 1250 µM)
- MIC (Bacillus pumilus): 400 µg/mL (≈ 1670 µM)
- MIC (Staphylococcus aureus): 400 µg/mL (≈ 1670 µM)
- MIC (Bacillus subtilis): 400 µg/mL (≈ 1670 µM)
- zone of inhibition at 1000 µg/mL (Pseudomonas fluorescens [2]): 19 mm
- zone of inhibition at 1500 µg/mL (Pseudomonas fluorescens [3]): 20 mm
- zone of inhibition at 500 µg/mL (Pseudomonas fluorescens [4]): 17 mm
- zone of inhibition at 200 µg/mL (Pseudomonas fluorescens [5]): 15 mm
- zone of inhibition at 1500 µg/mL (Penicillium chrysogenum [6]): 22 mm
- zone of inhibition at 1000 µg/mL (Penicillium chrysogenum [7]): 20 mm
- zone of inhibition at 500 µg/mL (Penicillium chrysogenum [8]): 19 mm
- zone of inhibition at 200 µg/mL (Penicillium chrysogenum [9]): 17 mm
- zone of inhibition at 100 µg/mL (Penicillium chrysogenum [10]): 15 mm
- zone of inhibition at 1000 µg/mL (Aspergillus niger [11]): 20 mm
- zone of inhibition at 1500 µg/mL (Aspergillus niger [12]): 22 mm
- zone of inhibition at 500 µg/mL (Aspergillus niger [13]): 19 mm
- zone of inhibition at 100 µg/mL (Aspergillus niger [14]): 16 mm
- zone of inhibition at 200 µg/mL (Aspergillus niger [15]): 18 mm
- zone of inhibition at 1500 µg/mL (Escherichia coli [16]): 18 mm
- zone of inhibition at 500 µg/mL (Escherichia coli [17]): 15 mm
- zone of inhibition at 1000 µg/mL (Escherichia coli [18]): 16 mm
- zone of inhibition at 200 µg/mL (Escherichia coli [19]): 14 mm
- zone of inhibition at 100 µg/mL (Escherichia coli [20]): 13 mm
- zone of inhibition at 100 µg/mL (Pseudomonas fluorescens [21]): 13 mm
- zone of inhibition at 1500 µg/mL (Pseudomonas aeruginosa [22]): 20 mm
- zone of inhibition at 1000 µg/mL (Pseudomonas aeruginosa [23]): 18 mm
